# Reference: PMC4359187 (Drugs in R&D, 2015)
# What was measured:
# [1] = tested on: treatment-naïve HIV-1-infected patients; assay: Continuous Holter 12-lead ECG; type: in vivo, human; settings: modified saquinavir/ritonavir regimen
# [2] = tested on: HIV-positive patients; settings: saquinavir monotherapy, 84 patients; cited from earlier work
# [3] = tested on: hERG channels heterologously expressed in HEK293 cells; settings: cited from earlier work
compound,measurement,setting,value
"CC(C)(C)NC(=O)[C@@H]1C[C@@H]2CCCC[C@@H]2CN1C[C@@H](O)[C@H](Cc1ccccc1)NC(=O)[C@H](CC(N)=O)NC(=O)c1ccc2ccccc2n1 [Saquinavir, saquinavir]",Correlation between maximum ∆QTcFdense and C max of saquinavir,[1],No strong correlation
same,"Clinical EC50 value, C min",[2],0.05 µg/mL
same,Blockage of hERG channels,[3]; hERG heterologously expressed in HEK293 cells,dose-dependent blockage
same,Effect on hERG trafficking,[3]; in vitro,inhibitory effects
